Data reported in publication PMC8448738, “Structural insight into the mechanism of energy transfer in cyanobacterial phycobilisomes” (Nature Communications, 2021).

How the values were obtained:
Assay in all cases: cryo-EM structure of intact phycobilisome, […] Å
Format in all cases: binding
[1] = biological target: T1, ApcA (Synechococcus 7002) (Picosynechococcus sp. PCC 7002, UniProt B1XQM2); details: covalent; native chromophore
T1 construct: native, within intact phycobilisome purified from cells; mildly glutaraldehyde cross-linked
T1 sequence (B1XQM2 2-161): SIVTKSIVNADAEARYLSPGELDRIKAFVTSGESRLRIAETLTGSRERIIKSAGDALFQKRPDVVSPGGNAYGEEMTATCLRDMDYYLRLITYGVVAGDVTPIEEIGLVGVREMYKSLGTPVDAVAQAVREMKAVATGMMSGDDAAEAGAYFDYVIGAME

[2] = biological target: T2, ApcD (Synechococcus 7002) (Picosynechococcus sp. PCC 7002, UniProt O68966); details: covalent; native chromophore
T2 construct: native, within intact phycobilisome purified from cells; mildly glutaraldehyde cross-linked; paired with ApcB in trimer A4

[3] = biological target: T3, ApcB (Synechococcus 7002) (Picosynechococcus sp. PCC 7002, UniProt O68970); details: covalent; native chromophore
T3 construct: native, within intact phycobilisome purified from cells; mildly glutaraldehyde cross-linked
T3 sequence (O68970 1-161): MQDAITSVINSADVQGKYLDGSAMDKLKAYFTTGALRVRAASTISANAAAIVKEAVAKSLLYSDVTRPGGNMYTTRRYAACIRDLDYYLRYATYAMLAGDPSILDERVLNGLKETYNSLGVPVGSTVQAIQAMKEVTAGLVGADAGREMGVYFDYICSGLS

[4] = biological target: T4, ApcF (Synechococcus 7002) (Picosynechococcus sp. PCC 7002, UniProt O68967); details: covalent; native chromophore
T4 construct: native, within intact phycobilisome purified from cells; mildly glutaraldehyde cross-linked; trimer A3

[5] = biological target: T5, ApcE (LCM), Synechococcus 7002 (Picosynechococcus sp. PCC 7002, UniProt O68973); details: covalent; native chromophore; in alpha-LCM domain
T5 construct: native, within intact phycobilisome; N-terminal alpha-LCM domain holds the bilin; three REP domains
T5 sequence (O68973 1-886): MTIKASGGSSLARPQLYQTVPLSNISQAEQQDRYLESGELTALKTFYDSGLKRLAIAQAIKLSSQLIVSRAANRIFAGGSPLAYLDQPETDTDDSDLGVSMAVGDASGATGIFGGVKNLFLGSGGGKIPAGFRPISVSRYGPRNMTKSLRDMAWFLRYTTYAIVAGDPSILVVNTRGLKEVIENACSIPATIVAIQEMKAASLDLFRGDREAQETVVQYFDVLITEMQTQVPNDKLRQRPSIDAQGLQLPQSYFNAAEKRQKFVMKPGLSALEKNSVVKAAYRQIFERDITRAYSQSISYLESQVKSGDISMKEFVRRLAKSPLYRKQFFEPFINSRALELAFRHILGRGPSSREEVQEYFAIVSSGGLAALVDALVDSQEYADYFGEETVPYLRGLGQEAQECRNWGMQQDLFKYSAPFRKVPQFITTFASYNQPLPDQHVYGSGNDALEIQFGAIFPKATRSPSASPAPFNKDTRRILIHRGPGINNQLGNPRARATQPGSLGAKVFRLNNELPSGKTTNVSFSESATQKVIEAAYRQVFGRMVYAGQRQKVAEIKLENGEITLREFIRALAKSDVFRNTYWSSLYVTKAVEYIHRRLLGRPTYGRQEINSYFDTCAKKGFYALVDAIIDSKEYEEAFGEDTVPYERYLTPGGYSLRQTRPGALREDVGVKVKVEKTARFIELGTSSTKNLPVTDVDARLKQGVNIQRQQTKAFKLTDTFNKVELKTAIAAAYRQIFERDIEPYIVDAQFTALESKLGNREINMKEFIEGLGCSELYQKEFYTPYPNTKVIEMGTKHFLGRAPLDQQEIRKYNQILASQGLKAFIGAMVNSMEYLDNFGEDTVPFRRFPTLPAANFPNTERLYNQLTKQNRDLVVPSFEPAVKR

CC=C1C(=Cc2[nH]c(C=C3N=C(C=C4NC(=O)C(CC)=C4C)C(C)=C3CCC(=O)O)c(CCC(=O)O)c2C)NC(=O)C1C (centres unmarked) [phycocyanobilin]
cryo-EM structure of intact phycobilisome, 3.5 Å [1]: The bilins of ApcF (orange), ApcE (red), and ApcA (forest green) are shown | cryo-EM structure of intact phycobilisome, 3.5 Å [2]: Only the bilin of ApcD is shown with its ring-A through ring-D indicated. | cryo-EM structure of intact phycobilisome, 3.5 Å [3]: Y116 is located between αApcD and the bilin of ApcB^A4-II | cryo-EM structure of intact phycobilisome, 3.5 Å [4]: The bilins of ApcF (orange), ApcE (red), and ApcA (forest green) are shown | cryo-EM structure of intact phycobilisome, 3.5 Å [5]: The bilins of ApcF (orange), ApcE (red), and ApcA (forest green) are shown
